Results as given in PMC4742234, “Screening of Drug Metabolizing Enzymes for the Ginsenoside Compound K In Vitro: An Efficient Anti-Cancer Substance Originating from Panax Ginseng” (PLoS ONE, 2016).
Entries after “also recorded” stand apart in the source; their conditions may differ.

Assays:
Format in all cases: in vitro ADME
CYP1A2 = molecular target: T1, CYP1A2 (Homo sapiens, UniProt P05177); assay: Inhibition of CYP1A2 (phenacetin O-deethylation) by CK in HLMs
T1 construct: tissue Cypex Ltd. (U.K.); host or cells: pooled human liver microsomes
T1 sequence (P05177 1-516): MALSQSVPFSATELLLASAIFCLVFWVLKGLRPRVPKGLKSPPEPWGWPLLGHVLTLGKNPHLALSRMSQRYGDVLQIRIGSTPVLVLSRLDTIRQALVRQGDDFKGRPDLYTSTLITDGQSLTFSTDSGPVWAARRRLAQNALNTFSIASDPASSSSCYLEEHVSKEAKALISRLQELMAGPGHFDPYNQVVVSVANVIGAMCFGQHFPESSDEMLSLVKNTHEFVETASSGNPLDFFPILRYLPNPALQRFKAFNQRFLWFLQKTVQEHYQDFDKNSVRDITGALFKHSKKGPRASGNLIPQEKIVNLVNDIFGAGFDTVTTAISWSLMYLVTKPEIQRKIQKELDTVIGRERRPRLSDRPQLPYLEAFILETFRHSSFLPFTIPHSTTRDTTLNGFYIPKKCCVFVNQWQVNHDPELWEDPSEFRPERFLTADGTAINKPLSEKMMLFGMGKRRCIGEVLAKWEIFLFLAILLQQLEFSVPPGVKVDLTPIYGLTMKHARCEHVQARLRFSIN
Method: (§1) The method was conducted according to our previous study with some modifications. The CYP isoform-specific probe reactions used were phenacetin O-deethylation (for CYP1A2), coumarin 7-hydroxylation (for CYP2A6), tolbutamide 4-hydroxylation (for CYP2C9), metoprolol α-hydroxylation (for CYP2D6), chlorzoxazone 6-hydroxylation (for CYP2E1),S-Mephenytoin 4-hydroxylation (for CYP2C19), and midazolam 1-hydroxylation (for CYP3A4). The kinetic study of CK was conducted with HLMs. A 0.2 mL incubation mixture that consisted of CK (as a substrate), the HLMs (0.5 mg/mL) or CYP isoforms (10 pmol), and 0.1 M sodium phosphate buffer (pH 7.4) was pre-warmed for 5 min at 37°C. The reaction was initiated by the addition of 1 mg/mL triphosphopyridine nucleotide (NADPH). All the reagents were dissolved in methanol, and the final solvent concentration in all incubations (including the controls) was 1%. The final incubations were performed in a shaking water bath (37°C) for 30 min. The reactions were stopped by adding 0.2 mL ice-cold acetonitrile, which contains irbesartan (114.9 ng/mL) as the internal standard. The samples were vortexed for 5 min. After centrifugation (12000×g for 10 min), the supernatants were transferred, and aliquots of 20 μL were injected into the HPLC-MS/MS system for analysis.
(§2) CK (10–100 μM) and a single CYP isoform-specific substrate (with a concentration similar to its corresponding Kmvalue) were used to determine the inhibitory effect of CK on specific CYP isoforms as described in detail previously. Substrates including phenacetin, coumarin, tolbutamide, metoprolol, chlorzoxazone, S-Mephenytoin, and midazolam were used at concentrations of 10, 5, 100, 7.5, 40, 100, and 5 μM, respectively. All incubation conditions were the same as mentioned above. The inhibitory effects on the CYP isoforms were investigated individually by incubating the HLMs in the absence or presence of CK. […]

CYP2A6 = molecular target: T2, CYP2A6 (Homo sapiens, UniProt P11509); assay: Inhibition of CYP2A6 (coumarin 7-hydroxylation) by CK in HLMs
T2 construct: tissue Cypex Ltd. (U.K.); host or cells: pooled human liver microsomes
T2 sequence (P11509 1-494): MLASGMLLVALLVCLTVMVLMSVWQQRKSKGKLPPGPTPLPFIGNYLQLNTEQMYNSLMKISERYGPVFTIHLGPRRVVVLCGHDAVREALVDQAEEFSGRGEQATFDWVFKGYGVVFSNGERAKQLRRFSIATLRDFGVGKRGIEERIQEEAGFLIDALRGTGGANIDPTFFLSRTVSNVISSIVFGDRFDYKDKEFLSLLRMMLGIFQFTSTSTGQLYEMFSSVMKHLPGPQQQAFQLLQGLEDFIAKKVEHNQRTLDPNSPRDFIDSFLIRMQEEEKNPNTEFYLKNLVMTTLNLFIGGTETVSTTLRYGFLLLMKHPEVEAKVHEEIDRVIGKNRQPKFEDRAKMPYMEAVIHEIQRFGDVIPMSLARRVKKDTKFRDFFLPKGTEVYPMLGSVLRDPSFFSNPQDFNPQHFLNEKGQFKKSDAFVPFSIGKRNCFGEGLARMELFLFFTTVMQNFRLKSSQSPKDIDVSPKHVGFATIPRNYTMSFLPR
Method: as §1, §2

CYP2C19 = molecular target: T3, CYP2C19 (Homo sapiens, UniProt P33261); assay: Inhibition of CYP2C19 (S-Mephenytoin 4-hydroxylation) by CK in HLMs
T3 construct: tissue Cypex Ltd. (U.K.); host or cells: pooled human liver microsomes
T3 sequence (P33261 whole entry): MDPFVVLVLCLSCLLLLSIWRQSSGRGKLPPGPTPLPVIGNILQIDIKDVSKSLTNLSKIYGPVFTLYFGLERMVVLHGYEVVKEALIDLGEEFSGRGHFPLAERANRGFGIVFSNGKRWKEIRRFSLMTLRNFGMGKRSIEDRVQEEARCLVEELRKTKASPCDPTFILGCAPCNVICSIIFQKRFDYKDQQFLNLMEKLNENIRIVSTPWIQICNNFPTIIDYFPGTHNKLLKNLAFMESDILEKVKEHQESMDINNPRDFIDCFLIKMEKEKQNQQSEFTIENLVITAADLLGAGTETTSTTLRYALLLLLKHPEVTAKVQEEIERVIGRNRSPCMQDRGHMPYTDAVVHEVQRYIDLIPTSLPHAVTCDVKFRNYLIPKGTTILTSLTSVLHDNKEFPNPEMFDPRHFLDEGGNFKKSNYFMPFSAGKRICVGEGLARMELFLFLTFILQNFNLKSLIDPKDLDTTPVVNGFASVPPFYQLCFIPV
Method: as §1, §2

[1] = classified by IC50 according to Kong et al

`CC(C)=CCC[C@](C)(OC1O[C@H](CO)[C@@H](O)[C@H](O)[C@H]1O)[C@H]1CC[C@]2(C)[C@@H]1[C@H](O)C[C@@H]1[C@@]3(C)CC[C@H](O)C(C)(C)[C@@H]3CC[C@]12C` (stereo partly drawn) [CK, 20-O-β-(D-glucopyranosyl)-20(S)-protopanaxadiol] was tested, and the “inhibitory effect on the activity of CYP1A2” value (CYP1A2; HLMs, CK 10–100 μM) was “minimal; also recorded: negligible”, the IC50 (CYP1A2; HLMs, phenacetin 10 μM, CK 10–100 μM) was greater than 100 µM and the “inhibitor potency class for CYP1A2” value (CYP1A2; [1]) was “weak (weak, if IC50≥100 μg/mL or ≥50 μM)”. For the same compound, the “inhibitory effect on the activity of CYP2A6” value (CYP2A6; HLMs, CK 10–100 μM) was “minimal; also recorded: negligible”, the IC50 (CYP2A6; HLMs, coumarin 5 μM, CK 10–100 μM) was greater than 100 µM and the “inhibitor potency class for CYP2A6” value (CYP2A6; [1]) was “weak (weak, if IC50≥100 μg/mL or ≥50 μM)”. For the same compound, the “inhibitory effect on the activity of CYP2C19” value (CYP2C19; HLMs, CK 10–100 μM) was “minimal; also recorded: negligible”, the IC50 (CYP2C19; HLMs, S-Mephenytoin 100 μM, CK 10–100 μM) was greater than 100 µM and the “inhibitor potency class for CYP2C19” value (CYP2C19; [1]) was “weak (weak, if IC50≥100 μg/mL or ≥50 μM)”.
